# Patent US4875922A, “Pyrimidine derivatives” (Imperial Chemical Industries PLC, priority 1986, dated 1989)
# Marks after values point to notes of the source that are not given here.
# Tests used:
# [1] = tested on: Barley; test: Whole plant screen for plant growth regulator activity, barley (BR); format: in vivo, Barley (Atem); conditions: BR, 4000 ppm (4 kg/ha), visual score after 2-6 weeks; for T = Tillering or side shooting: * = decrease in tillering
# Procedure: (§1) Compounds 1 to 3 in Table 1 were tested for plant growth regulator activity against five species for various growth effects relevant to plant growth regulation.
# (§2) The plant species used in this screen are presented in Table II with the leaf stage at which they were sprayed. Each chemical was applied at 4000 ppm (4 kg/ha in a 1000 l/ha field volume) using a tracksprayer and a SS8004E (Teejet) nozzle.
# (§3) After spray the plants were grown in a glasshouse with 25° C. day/22° C. night temperatures and supplementary lighting was supplied when necessary (from mercury vapour lamps), to provide a 16 hour photoperiod. The exception to this were the temperate cereals, wheat and barley which were grown in 16° C. day/13° C. night temperatures.
# (§4) After 2-6 weeks in the glasshouse, depending on the time of year, the plants were visually assessed for morphological characteristics. Formulation blanks were used as controls to assess the plants.
# (§5) Additional compounds in Table I were tested for plant growth regulator activity using the method of Example 60 except that Tomato was included in the test as an additional species. Tomato, Ailsa Craig, was grown in a single 3 inch pot in peat and treated at the 2 to 21/2 leaves growth stage. The results were presented in Table IV in which Tomato is indicated by the code TO and the Key is otherwise as for Table III.
# [2] = tested on: Tomato; test: Whole plant screen for plant growth regulator activity, tomato (TO); format: in vivo, Tomato (Ailsa Craig); conditions: 4000 ppm (4 kg/ha), visual score after 2-6 weeks
# Procedure: as §2, §3, §4, §5
# An astrisk (*) after a score under "T" (tillering) indicated a decrease in tillering.
# [3] = tested on: Wheat; test: Whole plant screen for plant growth regulator activity, wheat (WW); format: in vivo, Wheat (Timmo); conditions: for G = Greening effect / I = Interligular or internodal length reduction / R = Retardation / T = Tillering or side shooting: WW, 4000 ppm (4 kg/ha), visual score after 2-6 weeks; for T = Tillering or side shooting: * = decrease in tillering
# Procedure: as §1, §2, §3, §4, §5
# [4] = tested on: Rice; test: Whole plant screen for plant growth regulator activity, rice (RC); format: in vivo, Rice (Ishikari); conditions: 4000 ppm (4 kg/ha), visual score after 2-6 weeks; for T = Tillering or side shooting: * = decrease in tillering
# Procedure: as §1, §2, §3, §4, §5
# [5] = tested on: Apple; test: Whole plant screen for plant growth regulator activity, apple (AP); format: in vivo, Apple (Red Delicious); conditions: 4000 ppm (4 kg/ha), visual score after 2-6 weeks
# Procedure: as §1, §2, §3, §4, §5
Compound,G = Greening effect [1],I = Interligular or internodal length reduction [1],R = Retardation [1],T = Tillering or side shooting [1],G = Greening effect [2],I = Interligular or internodal length reduction [2],R = Retardation [2],G = Greening effect [3],I = Interligular or internodal length reduction [3],R = Retardation [3],T = Tillering or side shooting [3],G = Greening effect [4],I = Interligular or internodal length reduction [4],R = Retardation [4],T = Tillering or side shooting [4],G = Greening effect [5],I = Interligular or internodal length reduction [5],R = Retardation [5],T = Tillering or side shooting ([2]; * = decrease in tillering),A = Apical damage ([3]; 4000 ppm)
CCC(Cl)CC#CC(O)(c1cncnc1)C(C)(C)C (centres unmarked) [Compound 38],3 (61-100%),3 (61-100%),3 (61-100%),3 (61-100%),2 (31-60%),3 (61-100%),3 (61-100%),2 (31-60%),3 (61-100%),2 (31-60%),1 (10-30%),–,–,–,–,–,–,–,–,–
CC(C)C(O)(CCC(C)(C)C)c1cncnc1 (centres unmarked) [Compound 20],1 (10-30%),2 (31-60%),2 (31-60%),–,2 (31-60%),3 (61-100%),3 (61-100%),2 (31-60%),3 (61-100%),3 (61-100%),–,2 (31-60%),3 (61-100%),2 (31-60%),3 (61-100%),2 (31-60%),3 (61-100%),3 (61-100%),–,–
CC(C)CCCCC(O)(c1cncnc1)C(C)C (centres unmarked) [Compound 22],–,1 (10-30%),1 (10-30%),–,2 (31-60%),2 (31-60%),2 (31-60%),2 (31-60%),2 (31-60%),2 (31-60%),1 (10-30%),–,–,–,–,–,1 (10-30%),1 (10-30%),1 (10-30%),–
CCCCCCC#CC(O)(c1cncnc1)C(C)(C)C (centres unmarked) [Compound 33],–,–,–,2 (31-60%),1 (10-30%),1 (10-30%),2 (31-60%),1 (10-30%),1 (10-30%),–,–,–,–,–,–,–,–,–,–,–
CCCCCCC(O)(c1cncnc1)C(C)(C)C (centres unmarked) [Compound 30],1 (10-30%),3 (61-100%),2 (31-60%),2 (31-60%),2 (31-60%),2 (31-60%),2 (31-60%),2 (31-60%),3 (61-100%),3 (61-100%),3 (61-100%),2 (31-60%),3 (61-100%),2 (31-60%),3 (61-100%),–,2 (31-60%),2 (31-60%),–,–
CCC(C)CCCC(O)(c1cncnc1)C(C)C (centres unmarked) [Compound 21],1 (10-30%),3 (61-100%),2 (31-60%),3 (61-100%),2 (31-60%),2 (31-60%),2 (31-60%),2 (31-60%),2 (31-60%),2 (31-60%),–,1 (10-30%),2 (31-60%),2 (31-60%),2 (31-60%),–,2 (31-60%),2 (31-60%),–,–
"CC(C)(C)/C=C/C(O)(c1cncnc1)C(C)(C)CF (centres unmarked) [Compound 49, 3-fluoro-2,2-dimethyl-1-(3,3-dimethylbut-1-ene)-1-(pyrimidin-5-yl)-propan-1-ol]",–,–,–,3 (61-100%),1 (10-30%),1 (10-30%),2 (31-60%),1 (10-30%),2 (31-60%),2 (31-60%),1 (10-30%),–,–,–,–,–,–,–,–,–
CCCCCCCC(O)(c1cncnc1)C(C)C (centres unmarked) [Compound 26],–,–,–,2 (31-60%),1 (10-30%),1 (10-30%),2 (31-60%),1 (10-30%),1 (10-30%),2 (31-60%),–,–,–,–,–,–,–,–,–,–
CC(C)CCC(O)(c1cncnc1)C(C)(C)C (centres unmarked) [Compound 29],–,2 (31-60%),2 (31-60%),2 (31-60%),1 (10-30%),2 (31-60%),2 (31-60%),2 (31-60%),3 (61-100%),2 (31-60%),2 (31-60%),1 (10-30%),3 (61-100%),2 (31-60%),1 (10-30%),1 (10-30%),2 (31-60%),2 (31-60%),–,–
CC(C)C(O)(CC1CCCC1)c1cncnc1 (centres unmarked) [Compound 27],–,–,–,2*,2 (31-60%),2 (31-60%),2 (31-60%),2 (31-60%),2 (31-60%),2 (31-60%),–,–,–,–,–,–,–,–,–,–
CCCCC(O)(c1cncnc1)C(C)(C)C (centres unmarked) [Compound 35],–,–,–,3 (61-100%),–,2 (31-60%),2 (31-60%),–,–,–,–,–,–,–,–,–,–,–,–,2*
CC(C)CC#CC(O)(c1cncnc1)C1CC1 (centres unmarked) [Compound 56],3 (61-100%),3 (61-100%),3 (61-100%),3 (61-100%),1 (10-30%),1 (10-30%),1 (10-30%),2 (31-60%),3 (61-100%),2 (31-60%),1 (10-30%),–,–,–,–,–,–,–,–,–
CC(C)(C)C(O)(C#CCCCl)c1cncnc1 (centres unmarked) [Compound 36],3 (61-100%),3 (61-100%),3 (61-100%),3 (61-100%),2 (31-60%),2 (31-60%),2 (31-60%),2 (31-60%),3 (61-100%),2 (31-60%),1 (10-30%),–,–,–,–,–,–,–,–,–
CC(C)(C)/C=C/C(O)(c1cncnc1)C(C)(C)C (centres unmarked) [Compound 39],–,3 (61-100%),3 (61-100%),3 (61-100%),2 (31-60%),3 (61-100%),3 (61-100%),1 (10-30%),3 (61-100%),3 (61-100%),2 (31-60%),–,–,–,–,–,–,–,–,–
CC(C)(C)C(O)(C#CCCCCCl)c1cncnc1 (centres unmarked) [Compound 37],3 (61-100%),3 (61-100%),3 (61-100%),3 (61-100%),–,–,–,2 (31-60%),3 (61-100%),2 (31-60%),1 (10-30%),–,–,–,–,–,–,–,–,–
